The source of these data is patent publication US20120270844A1, “METHODS FOR TREATING ALZHEIMER'S DISEASE” (aFRAXis, Inc., priority 2009, published 2012).

Holding throughout (format): biochemical
One experiment addresses PAK1 (Homo sapiens, UniProt Q13153). Put plainly: Z'Lyte fluorescence-based (FRET) PAK kinase assay, PAK1. The settings on record: 50 μM ATP. As for the experimental part: (§1) A fluorescence-based assay format is used to determine IC50 values of test compounds in vitro. Purified PAK kinase is incubated with ATP, and a test compound at various concentrations and a substrate peptide containing two fluorophores. In a second step, the reaction mix is incubated with a site-specific protease that cleaves non-phosphorylated bat not phosphorylated substrate peptide, disrupting the FRET signal generated by the two fluorophores in the cleaved peptide (Z′Lyte™ Kinase assay platform; Life Technologies).
(§2) Reagents: 50 mM HEPES, pH 7.5; 0.01% BRIJ-35; […]; 1 mM EGTA, 2 uM substrate peptide Ser/Thr20 (proprietary Life Technologies Sequence), PAK enzyme [2.42-30.8 ng for PAK1, 0.29-6 ng for PAK2, 1.5-20 ng for PAK3 and 0.1-0.86 ng for PAK4; actual enzyme amounts depend on lot activity of the enzyme preparation]
(§3) Test compounds are dissolved in DMSO at various concentrations; the final DMSO concentration in the assay reaction is 1%.
(§4) ATP concentration at […] apparent is used in the assay [50 ┌M ATP for PAK1 assay, 75 ┌M ATP for PAK2 assay, 100 μM ATP for PAK3 assay, 5 μM ATP for PAK4 assay] in a total assay volume of 10 μl. Assay reactions are incubated at room temperature for 1 hr. Following the kinase reaction, 5 μl of 1:256 dilution of development solution A (Life Technologies) is added and the reaction mix is incubated for an additional 1 hr at room temperature.
(§5) Plates are analyzed in a standard fluorescence plate reader (Tecan or equivalent) using an excitation wavelength of 400 nn and emission wavelengths of 445 nm and 520 nm.
(§6) Inhibition of kinase reaction is determined by emission ratio=emission@445 nm/emission@520 nm
(§7) A fluorescence-based assay format is used to determine IC50 values of test compounds in vitro. Purified PAK kinase is incubated with ATP, and a test compound at various concentrations and a substrate peptide containing two fluorophores. In a second step, the reaction mix is incubated with a site-specific protease that cleaves non-phosphorylated but not phosphorylated substrate peptide, disrupting the FRET signal generated by the two fluorophores in the cleaved peptide (Z'Lyte™ Kinase assay platform Life Technologies).
(§8) Reagents: 50 mM HEPES, pH 7.5; 0.01% BRIJ-35; 10 mM MgCl2; 1 mM EGTA, 2 uM substrate peptide Ser/Thr20 (proprietary Life Technologies Sequence), PAK enzyme [2.42-30.8 ng for PAK1, 0.29-6 ng for PAK2, 1.5-20 ng for PAK3 and 0.1-0.86 ng for PAK4; actual enzyme amounts depend on lot activity of the enzyme preparation]
(§9) ATP concentration at Km apparent is used in the assay [50 μMATP for PAK1 assay, 75 µM ATP for PAK2 assay, 100 μM ATP for PAK3 assay, 5 μM ATP for PAK4 assay] in a total assay volume of […] Assay reactions are incubated at room temperature for 1 hr. Following the kinase reaction. […] of 1:256 dilution of development solution A (Life Technologies) is added and the reaction mix is incubated for an additional 1 hr at room temperature.
(§10) Plates are analyzed in a standard fluorescence plate reader (Teem or equivalent) using an excitation wavelength of 400 nm and emission wavelengths of 445 nm and 520 nm.

Another experiment deals with PAK4 (Homo sapiens, UniProt O96013). Put plainly: Z'Lyte fluorescence-based (FRET) PAK kinase assay, PAK4. Conditions: 5 μM ATP. As for the experimental part: as §1, §2, §3, §4, §5, §6, §7, §8, §9, §10
Sequence of PAK4 (O96013 whole entry): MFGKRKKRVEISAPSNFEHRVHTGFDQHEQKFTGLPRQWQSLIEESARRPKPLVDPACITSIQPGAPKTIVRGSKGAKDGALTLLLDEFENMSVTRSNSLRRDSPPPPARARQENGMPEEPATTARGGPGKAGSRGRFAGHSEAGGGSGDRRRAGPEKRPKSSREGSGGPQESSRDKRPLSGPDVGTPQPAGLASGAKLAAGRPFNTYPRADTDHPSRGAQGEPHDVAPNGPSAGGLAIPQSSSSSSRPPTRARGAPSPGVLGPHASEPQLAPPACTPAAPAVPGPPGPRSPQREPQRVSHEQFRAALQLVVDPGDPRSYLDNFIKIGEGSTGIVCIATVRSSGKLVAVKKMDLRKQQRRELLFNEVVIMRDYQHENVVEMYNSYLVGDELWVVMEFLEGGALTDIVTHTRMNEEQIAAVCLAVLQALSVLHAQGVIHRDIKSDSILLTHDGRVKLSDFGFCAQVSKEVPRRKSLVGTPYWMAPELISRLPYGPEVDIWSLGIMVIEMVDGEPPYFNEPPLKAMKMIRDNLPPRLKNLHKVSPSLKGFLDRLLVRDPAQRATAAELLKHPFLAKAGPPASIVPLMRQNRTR
The next experiment addresses PAK2 (Homo sapiens, UniProt Q13177). Put plainly: Z'Lyte fluorescence-based (FRET) PAK kinase assay, PAK2. Conditions: Table 1 of Example 100; 75 μM ATP. The method, then: as §1, §2, §3, §4, §5, §6, §7, §8, §9, §10
Where [1] appears, read: Table 1 of Example 29 (own compound numbering).

Sequence of PAK1 (Q13153 whole entry): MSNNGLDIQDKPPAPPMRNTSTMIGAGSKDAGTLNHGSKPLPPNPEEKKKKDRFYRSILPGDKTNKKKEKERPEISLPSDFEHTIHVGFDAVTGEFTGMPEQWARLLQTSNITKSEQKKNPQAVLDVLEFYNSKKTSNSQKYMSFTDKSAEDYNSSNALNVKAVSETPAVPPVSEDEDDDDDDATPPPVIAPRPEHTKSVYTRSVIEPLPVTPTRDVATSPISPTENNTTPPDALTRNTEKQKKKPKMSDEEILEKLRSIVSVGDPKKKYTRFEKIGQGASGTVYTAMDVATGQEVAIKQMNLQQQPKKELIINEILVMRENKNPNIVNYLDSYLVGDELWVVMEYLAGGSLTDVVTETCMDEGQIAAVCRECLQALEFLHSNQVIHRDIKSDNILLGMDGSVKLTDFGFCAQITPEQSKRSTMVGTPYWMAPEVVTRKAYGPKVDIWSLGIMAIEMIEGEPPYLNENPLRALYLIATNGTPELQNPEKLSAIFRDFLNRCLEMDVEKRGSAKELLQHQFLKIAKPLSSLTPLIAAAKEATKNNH
Sequence of PAK2 (Q13177 whole entry): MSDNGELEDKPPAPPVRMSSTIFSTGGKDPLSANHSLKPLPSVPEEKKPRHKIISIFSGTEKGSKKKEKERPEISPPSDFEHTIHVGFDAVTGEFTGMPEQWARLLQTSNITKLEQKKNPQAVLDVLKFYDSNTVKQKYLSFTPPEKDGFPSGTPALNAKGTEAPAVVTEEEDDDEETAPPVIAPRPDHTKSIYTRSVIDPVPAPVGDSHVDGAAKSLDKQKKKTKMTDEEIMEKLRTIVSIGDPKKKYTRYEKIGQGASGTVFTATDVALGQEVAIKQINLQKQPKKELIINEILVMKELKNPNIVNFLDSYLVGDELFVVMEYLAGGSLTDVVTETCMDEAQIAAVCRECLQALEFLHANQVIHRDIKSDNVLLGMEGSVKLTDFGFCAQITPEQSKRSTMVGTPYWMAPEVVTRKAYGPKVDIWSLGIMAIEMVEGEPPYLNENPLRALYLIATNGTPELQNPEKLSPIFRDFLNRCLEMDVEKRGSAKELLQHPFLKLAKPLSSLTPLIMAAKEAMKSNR

As for `O=c1ccc2cnc(Nc3ccc(OC4CCCNC4)cc3)nc2n1Cc1ccccc1C(F)(F)F` (centres unmarked) [compound 70], the IC50 on PAK1 (setting [1]) and at PAK4 (setting [1]) was under 1000 nM each time.

As for `CN1CCN(c2ccc(Nc3ncc4ccc(=O)n(Cc5ccccc5Cl)c4n3)cc2)CC1` [Compound 31], the figures for the IC50 at PAK1 (Table 1 of Example 100), at PAK2 and against PAK4 (Table 1 of Example 100) were under 1000 nM, under 1000 nM and 1000 to 10000 nM, respectively.

In the case of `O=c1ccc2cnc(Nc3ccc(N4CCNCC4)c(F)c3)nc2n1C1Cc2ccccc2C1` [compound 77], the IC50 against PAK1 (setting [1]) and at PAK4 (setting [1]) was under 1000 nM in each case.

As to `CN(C)c1ccc(Nc2ncc3ccc(=O)n(C4CCCC4)c3n2)cc1` [compound 59], the IC50 – broadly, the point on the concentration scale where inhibition reaches its midpoint – was over 10000 nM against PAK1 (setting [1]) and 1000 to 10000 nM against PAK4 (setting [1]).

On to `COc1ccc(Cn2c(=O)ccc3cnc(Nc4ccc(N5CCN(C)CC5)cc4)nc32)cc1` [Compound 29], for which the IC50 at PAK1 (Table 1 of Example 100), at PAK2 and against PAK4 (Table 1 of Example 100) was over 10000 nM in each case.

As for `CN1CCN(c2ccc(Nc3ncc4ccc(=O)n(C5CCCc6ccccc65)c4n3)cc2)CC1` (centres unmarked) [compound 67], the IC50 against PAK1 (setting [1]) is under 1000 nM; against PAK4 (setting [1]), 1000 to 10000 nM.

Take `CN1CCN(c2ccc(Nc3ncc4ccc(=O)n(Cc5ccccn5)c4n3)cc2)CC1` [compound 90]: the IC50 against PAK1 (setting [1]) and against PAK4 (setting [1]) was 1000 to 10000 nM each time.

With `Cc1ccccc1Cn1c(=O)ccc2cnc(Nc3ccc(N4CCN(C)CC4)cc3)nc21` [compound 93], on PAK4 (setting [1]), the IC50 lay in the range of 1000 to 10000 nM.

Take `COc1cccc(Cn2c(=O)ccc3cnc(Nc4ccc(N5CCN(C)CC5)cc4)nc32)c1` [Compound 33]: the IC50 is 1000 to 10000 nM on PAK1 (Table 1 of Example 100), over 10000 nM on PAK2 and over 10000 nM at PAK4 (Table 1 of Example 100).

Turning to `CN1CCN(c2ccc(Nc3ncc4ccc(=O)n(Cc5ccc(F)cc5)c4n3)cc2)CC1` [Compound 28], the IC50 against PAK1 (Table 1 of Example 100) was 1000 to 10000 nM; at PAK2, over 10000 nM; against PAK4 (Table 1 of Example 100), over 10000 nM.

As for `Cc1ccccc1Cn1c(=O)ccc2cnc(Nc3ccc(N4CCN(C)CC4)cc3)nc21` [Compound 39], the results for the IC50 at PAK1 (Table 1 of Example 100), on PAK2 and against PAK4 (Table 1 of Example 100) were under 1000 nM, under 1000 nM and 1000 to 10000 nM, respectively.

As for `CN1CCN(c2ccc(Nc3ncc4ccc(=O)n(Cc5ccccc5)c4n3)cc2)CC1` [Compound 26], the IC50 against PAK2 lay in the range of 1000 to 10000 nM.

For the compound `Cc1cc(F)ccc1Cn1c(=O)ccc2cnc(Nc3ccc(N4CCN(C)CC4)cc3)nc21` [compound 99], the IC50 on PAK1 (setting [1]) and against PAK4 (setting [1]) was 1000 to 10000 nM each time.

As to `CN1CCN(c2ccc(Nc3ncc4ccc(=O)n(Cc5ccccc5F)c4n3)cc2)CC1` [compound 89], the IC50 against PAK1 (setting [1]) and at PAK4 (setting [1]) was 1000 to 10000 nM each time.

Take `CN1CCN(c2ccc(Nc3ncc4ccc(=O)n(C5CCCC5)c4n3)cc2)CC1` [compound 57]: the IC50 was under 1000 nM against PAK1 (setting [1]) and 1000 to 10000 nM against PAK4 (setting [1]).

With `CN1CCN(c2ccc(Nc3ncc4ccc(=O)n(Cc5cccnc5)c4n3)cc2)CC1` [compound 92], the IC50 against PAK1 (setting [1]) was 1000 to 10000 nM; against PAK4 (setting [1]), over 10000 nM.

Regarding `COc1ccccc1Cn1c(=O)ccc2cnc(Nc3ccc(N4CCN(C)CC4)cc3)nc21` [compound 88], the IC50 against PAK1 (setting [1]) was under 1000 nM; against PAK4 (setting [1]), 1000 to 10000 nM.

Consider `CN(C)CC(c1ccccc1)n1c(=O)ccc2cnc(Nc3ccc(N4CCOCC4)cc3)nc21` (centres unmarked) [compound 72], for which the IC50 on PAK1 (setting [1]) and on PAK4 (setting [1]) was over 10000 nM each time.

Take `CN1CCN(c2ccc(Nc3ncc4ccc(=O)n([C@@H]5CCCc6ccccc65)c4n3)cc2)CC1` [compound 66]: the IC50 on PAK1 (setting [1]) and on PAK4 (setting [1]) was 1000 to 10000 nM in each case.

`O=c1ccc2cnc(Nc3ccc(NC4CCCNC4)cc3)nc2n1Cc1ccccc1C(F)(F)F` (centres unmarked) [compound 63]: the IC50 on PAK1 (setting [1]) and against PAK4 (setting [1]) was under 1000 nM in each case.

Regarding `CN1CCN(c2ccc(Nc3ncc4ccc(=O)n(Cc5ccccc5C#N)c4n3)cc2)CC1` [compound 94], the IC50 is under 1000 nM against PAK1 (setting [1]) and 1000 to 10000 nM on PAK4 (setting [1]).

In the case of `CN1CCN(c2ccc(Nc3ncc4ccc(=O)n(Cc5ccncc5)c4n3)cc2)CC1` [compound 91], the IC50 was 1000 to 10000 nM on PAK1 (setting [1]) and over 10000 nM at PAK4 (setting [1]).

`CN1CCN(c2ccc(Nc3ncc4ccc(=O)n(Cc5ccccc5OC(F)F)c4n3)cc2)CC1` [compound 98]: the IC50 on PAK1 (setting [1]) and on PAK4 (setting [1]) was under 1000 nM in each case.

Consider `O=c1ccc2cnc(Nc3ccc(N4CCOCC4)cc3)nc2n1C1CCCC1` [compound 58], for which the results for the IC50 against PAK1 (setting [1]) and against PAK4 (setting [1]) were over 10000 nM and 1000 to 10000 nM, respectively.

In the case of `CN1CCN(c2ccc(Nc3ncc4ccc(=O)n(C5Cc6ccccc6C5)c4n3)cc2)CC1` [compound 73], the IC50 on PAK1 (setting [1]) and on PAK4 (setting [1]) was under 1000 nM throughout.

Take `CN(C)CCNc1ccc(Nc2ncc3ccc(=O)n(C4CCCC4)c3n2)cc1` [compound 60]: the IC50 against PAK1 (setting [1]) and at PAK4 (setting [1]) was 1000 to 10000 nM each time.

Take `O=c1ccc2cnc(Nc3ccc(OC4CCNCC4)cc3)nc2n1Cc1ccccc1C(F)(F)F` [compound 68]: the IC50 against PAK1 (setting [1]) and at PAK4 (setting [1]) was under 1000 nM each time.

On to `CN1CCN(c2ccc(Nc3ncc4ccc(=O)n(Cc5ccccc5Cl)c4n3)cc2)CC1` [compound 85], for which the results for the IC50 against PAK1 (setting [1]) and at PAK4 (setting [1]) were under 1000 nM and 1000 to 10000 nM, respectively.

With `CN1CCN(c2ccc(Nc3ncc4ccc(=O)n(Cc5ccccc5C(F)(F)F)c4n3)cc2)CC1` [compound 96], the IC50 against PAK1 (setting [1]) and on PAK4 (setting [1]) was under 1000 nM throughout.

For `O=c1ccc2cnc(Nc3ccc(N4CCNCC4)c(F)c3)nc2n1C1CCc2ccccc2C1` (centres unmarked) [compound 78], the IC50 against PAK1 (setting [1]) and on PAK4 (setting [1]) was under 1000 nM each time.

For `CN1CCN(c2ccc(Nc3ncc4ccc(=O)n(Cc5ccccc5OC(F)(F)F)c4n3)cc2)CC1` [compound 95], the IC50 against PAK1 (setting [1]) is under 1000 nM; on PAK4 (setting [1]) it was 1000 to 10000 nM.

Consider `COc1ccc(Cn2c(=O)ccc3cnc(Nc4ccc(N5CCN(C)CC5)cc4)nc32)cc1` [compound 83], for which the IC50 at PAK1 (setting [1]) and against PAK4 (setting [1]) was over 10000 nM in each case.

For the compound `CN(C)CC(c1ccccc1)n1c(=O)ccc2cnc(Nc3ccc(N4CCN(C)CC4)cc3)nc21` (centres unmarked) [compound 75], the half-inhibitory concentration (IC50) against PAK1 (setting [1]) and against PAK4 (setting [1]) was over 10000 nM throughout.

With `O=c1ccc2cnc(Nc3ccc(NC4CCNCC4)cc3)nc2n1Cc1ccccc1C(F)(F)F` [compound 64], the IC50 on PAK1 (setting [1]) and against PAK4 (setting [1]) was under 1000 nM each time.

Take `Cc1ccc(C)c(Cn2c(=O)ccc3cnc(Nc4ccc(N5CCN(C)CC5)cc4)nc32)c1` [compound 100]: the IC50 at PAK1 (setting [1]) and at PAK4 (setting [1]) was 1000 to 10000 nM each time.

For the compound `CN1CCN(c2ccc(Nc3ncc4ccc(=O)n(C5CCc6ccccc6C5)c4n3)cc2)CC1` (centres unmarked) [compound 74], the IC50 at PAK1 (setting [1]) and against PAK4 (setting [1]) was under 1000 nM in each case.

As for `CN1CCN(c2ccc(Nc3ncc4ccc(=O)n(C5CCOc6ccccc65)c4n3)cc2)CC1` (centres unmarked) [compound 71], the IC50 at PAK1 (setting [1]) and on PAK4 (setting [1]) was 1000 to 10000 nM throughout.

For `CN1CCN(c2ccc(Nc3ncc4ccc(=O)n(Cc5ccc(Cl)cc5)c4n3)cc2)CC1` [compound 84], the figures for the IC50 at PAK1 (setting [1]) and against PAK4 (setting [1]) were 1000 to 10000 nM and over 10000 nM, respectively.

As for `CN1CCN(c2ccc(Nc3ncc4ccc(=O)n(Cc5ccc(F)cc5)c4n3)cc2)CC1` [compound 82], the IC50 on PAK1 (setting [1]) is 1000 to 10000 nM; at PAK4 (setting [1]), over 10000 nM.

In the case of `CN1CCN(c2ccc(Nc3ncc4ccc(=O)n(C5CCc6ccccc65)c4n3)cc2)CC1` (centres unmarked) [compound 62], the IC50 at PAK1 (setting [1]) is under 1000 nM; against PAK4 (setting [1]), 1000 to 10000 nM.
